Measured values published in ChEMBL document CHEMBL3808370, “Nortriketones: Antimicrobial Trimethylated Acylphloroglucinols from Ma̅nuka (Leptospermum scoparium)” (J Nat Prod, 2016).
Converted amounts (≈) assume the structure as drawn. The source made the active and inactive calls. No cut-off for these calls is given here.

Legend:
[1] = target: T1, 4-hydroxyphenylpyruvate dioxygenase (Arabidopsis thaliana) (UniProt P93836); assay: Inhibition of recombinant Arabidopsis thaliana HPPD overexpressed in Escherichia coli JM105 cells at 100 uM using 4-HPP as substrate preincubated for 15 mins followed by substrate addition and subsequent incubation for 15 mins by HPLC analysis
T1 sequence (whole entry): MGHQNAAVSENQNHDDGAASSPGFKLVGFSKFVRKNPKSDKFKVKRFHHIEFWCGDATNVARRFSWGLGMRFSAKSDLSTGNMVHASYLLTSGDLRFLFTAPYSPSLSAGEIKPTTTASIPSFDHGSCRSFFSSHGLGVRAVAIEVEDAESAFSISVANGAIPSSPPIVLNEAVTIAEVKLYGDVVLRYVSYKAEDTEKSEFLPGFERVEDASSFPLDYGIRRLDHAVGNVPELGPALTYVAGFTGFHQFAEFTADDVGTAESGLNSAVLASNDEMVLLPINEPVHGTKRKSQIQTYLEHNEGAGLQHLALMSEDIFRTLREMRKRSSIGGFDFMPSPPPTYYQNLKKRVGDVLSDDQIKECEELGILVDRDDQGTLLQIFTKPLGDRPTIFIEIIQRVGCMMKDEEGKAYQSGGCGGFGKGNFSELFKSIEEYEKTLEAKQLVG

Staphylococcus aureus = assay: Antibacterial activity against methicillin-resistant Staphylococcus aureus by two-fold broth dilution method; assay type: functional
Escherichia coli = assay: Antibacterial activity against Escherichia coli; assay type: functional
Enterococcus faecalis = assay: Antibacterial activity against vancomycin-resistant Enterococcus faecalis incubated for 18 to 24 hrs by broth microdilution method; assay type: functional
[2] = target: T2, 4-hydroxyphenylpyruvate dioxygenase (Arabidopsis thaliana, UniProt P93836); assay: Inhibition of recombinant Arabidopsis thaliana HPPD overexpressed in Escherichia coli JM105 cells using 4-HPP as substrate preincubated for 15 mins followed by substrate addition and subsequent incubation for 15 mins by HPLC analysis; conditions: read-out: I50
T2 sequence (P93836 whole entry): T1 sequence (whole entry)

Compound	inhibition [1]	MIC (Staphylococcus aureus)	MIC (Escherichia coli)	MIC (Enterococcus faecalis)	IC50 [2]
CC1=C(O)C(C)(C)C(=O)C(C(=O)CC(C)C)=C1O	inactive	–	–	–	–
CC1=C(O)C(C)(C)C(=O)C(C(=O)C(C)C)=C1O	inactive	–	–	–	–
CC1=C(O)C(C)(C)C(=O)C(C(=O)CCc2ccccc2)=C1O	inactive	64 µg/mL (≈ 213 µM)	> 512 µg/mL	64 µg/mL (≈ 213 µM)	–
CC1(C)C(=O)C(C(=O)CCc2ccccc2)=C(O)C(C)(C)C1=O	–	6 µg/mL (≈ 19.1 µM)	> 512 µg/mL	6 µg/mL (≈ 19.1 µM)	0.75 µM
